From article PMC8136874, “The entry reaction of the plant shikimate pathway is subjected to highly complex metabolite-mediated regulation” (The Plant Cell, 2021)
Like-named read-outs stand apart in the source and are kept apart here.

Tests used:
[1] = tested on: root growth of Arabidopsis Col-0 and dhs mutants; assay: Chemical feeding experiment, root length of 10-day-old seedlings; assay type: in vivo, Arabidopsis thaliana; settings: for IC50: Arabidopsis thaliana
Method: Chemical feeding experiments were carried out as described previously ([de Oliveira et al., 2019]) with some modifications. Seedlings were grown on agar plates containing 0.5 MS with 1% sucrose, 0.8% agar, and 2.5 mM MES at pH 5.7 in the growth chamber where we grew other plants in soil. AAAs and/or shikimate were added to autoclaved media after cooling down to temperatures below 55°C. Plants were grown on the same plate side by side to minimize environmental effects, and multiple plates were prepared to obtain replications. Root lengths of 10-day-old seedlings were quantified by ImageJ.

[2] = target: T1, AthDHS1 (Arabidopsis thaliana, UniProt P29976); assay: DHS enzymatic activity assay with recombinant AthDHS1; assay type: biochemical; settings: for effect on AthDHS1 activity (in words): 1 mM effector; for IC50: varied effector concentrations, read-out: IC50 of AthDHS1 inhibition
T1 construct: AthDHS1; residues 49–525; hexa-histidine; made in house; host or cells: E. coli Rosetta2 (DE3), pET28a
Method: (§1) Unless otherwise noted, DHS enzymatic activity was monitored as previously described ([Liu et al., 2008]), with several optimizations for high-throughput assays with eight-strip PCR tubes and a thermal cycler. The enzyme solution (7.7 µL) containing 50 mM HEPES (pH 7.4) was preincubated with an effector molecule(s) at room temperature for 10 min. For assays using recombinant protein and enzyme fraction isolated from plant leaves, 0.01–0.05 µg and approximately 50 µg of proteins were used, respectively. After adding 0.5 µL of 0.1 M DTT, the samples were further incubated at room temperature for 15 min. […] The enzyme reaction was started by adding 6.8 µL of the substrate solution, then incubated at 37°C for 20 min, and terminated by adding 30 µL of 0.6 M trichloroacetic acid. After brief centrifugation, 5 µL of 200 mM NaIO4 (sodium meta-periodate) in 9 N H3PO4 was added to oxidize the enzymatic product and incubate at 25°C for 20 min. To stop the oxidation reaction, 20 µL of 0.75 M NaAsO2 (sodium arsenite), which was dissolved in 0.5 M Na2SO4 and 0.05 M H2SO4, was immediately mixed. After 5 min of incubation at room temperature, one-third of the sample solution was transferred to a new tube to be mixed with 50 µL of 40 mM thiobarbituric acid and incubated at 99°C for 15 min in a thermal cycler. Developed pink chromophore was extracted by putting the final solutions with 600 µL of cyclohexanone in eight-strip solvent-resistant plastic tubes, mixing vigorously and centrifuging them at 4,500 × g for 3 min to separate water- and cyclohexanone-based layers. The absorbance of the pink supernatant was read at 549 nm with the microplate reader (Infinite 200 PRO, TECAN, Männedorf, Switzerland) to calculate DAHP production with the molar extinction coefficient at 549 nm (ε = 549 nm) of 4.5 × 10^4/M/cm. Reaction mixtures with boiled enzyme or without any substrates were run in parallel and used as negative controls to estimate the background signal for recombinant enzymes or enzymatic fraction from plant tissues, respectively.
(§2) For determination of kinetic parameters, the data of enzymatic activities measured in the presence of various concentration of substrates were calculated with the Michaelis–Menten equation in Graphpad Prism 6 (GraphPad Software, San Diego, CA, USA).

[3] = target: T2, AthDHS2 (Arabidopsis thaliana, UniProt Q00218); assay: DHS enzymatic activity assay with recombinant AthDHS2; assay type: biochemical; settings: for effect on AthDHS2 activity (in words): 1 mM effector; for IC50: varied effector concentrations, read-out: IC50 of AthDHS2 inhibition
T2 construct: AthDHS2; residues 34–507; hexa-histidine; made in house; host or cells: E. coli Rosetta2 (DE3), pET28a

[4] = target: AthDHS3 (Arabidopsis thaliana, UniProt Q9SK84); assay: DHS enzymatic activity assay with recombinant AthDHS3; assay type: biochemical; settings: for effect on AthDHS3 activity (in words): 1 mM effector
Method: as §1, §2

[5] = tested on: AthDHS1 and AthDHS2 mixtures; assay: DHS assay using mixtures of AthDHS1 and AthDHS2 recombinant enzymes; assay type: biochemical, Arabidopsis thaliana; settings: 1 mM effector; molar ratios 0, 0.25, 0.5, 0.75, 1
Method: Next, we thought that the presence of non-inhibited DHS isoforms (e.g. AthDHS1) may affect the AAA sensitivity of AthDHS2, given that AthDHSs are known to function as tetrameric or dimeric forms ([Suzich et al., 1985]; [Pinto et al., 1986]; [Webby et al., 2005]). To test this, the recombinant enzymes of AAA non-inhibited AthDHS1 and AAA-inhibited AthDHS2 were mixed with different ratios (0, 0.25, 0.5, 0.75, and 1) and DHS activity assays were conducted with different inhibitors. Based on the kinetic parameters and the regulatory behaviors of individual AthDHSs, the expected level of DHS activity was first calculated and plotted (dotted lines in Figure 5, D, see the “Materials and methods” section). […] Similar results were obtained for the AthDHS2 and AthDHS3 mixture (Figure 5, E).
Unless otherwise noted, DHS enzymatic activity was monitored as previously described ([Liu et al., 2008]), with several optimizations for high-throughput assays with eight-strip PCR tubes and a thermal cycler. The enzyme solution (7.7 µL) containing 50 mM HEPES (pH 7.4) was preincubated with an effector molecule(s) at room temperature for 10 min. For assays using recombinant protein and enzyme fraction isolated from plant leaves, 0.01–0.05 µg and approximately 50 µg of proteins were used, respectively. After adding 0.5 µL of 0.1 M DTT, the samples were further incubated at room temperature for 15 min. […] The enzyme reaction was started by adding 6.8 µL of the substrate solution, then incubated at 37°C for 20 min, and terminated by adding 30 µL of 0.6 M trichloroacetic acid. After brief centrifugation, 5 µL of 200 mM NaIO4 (sodium meta-periodate) in 9 N H3PO4 was added to oxidize the enzymatic product and incubate at 25°C for 20 min. […] The absorbance of the pink supernatant was read at 549 nm with the microplate reader (Infinite 200 PRO, TECAN, Männedorf, Switzerland) to calculate DAHP production with the molar extinction coefficient at 549 nm (ε = 549 nm) of 4.5 × 10^4/M/cm. […]

[6] = tested on: DHS activities from maize (Zea mays) shoots; design: method as in Graziana and Boudet, 1980; settings: 1 mM; ref Graziana and Boudet, 1980; cited from earlier work
[7] = tested on: carrot (Daucus carota) DHS; design: method as in Suzich et al., 1985; settings: ref Suzich et al., 1985; cited from earlier work
[8] = tested on: total DHS activity in spinach leaf extracts; assay: DHS activity assay of crude extracts from spinach mature leaves; assay type: biochemical, Spinacia oleracea; settings: 1 mM
Method: (§3) Spinach (S. oleracea) leaves were purchased at a local grocery store. For de-etiolated spinach seedlings, spinach was germinated on the soil and grown in the dark for 3 days, followed by exposure to normal growth light for 1 day for de-etiolation. More than 20 g of fully expanded mature leaves or whole de-etiolated seedlings were harvested and ground to a fine powder in a mortar and pestle with liquid nitrogen. After dissolving in 100 mL extraction buffer (20 mM HEPES [pH 7.6], 1 mM DTT and 0.1% β-mercaptoethanol) and filtrating with Miracloth, the samples were centrifuged at 10,000 × g for 10 min and subsequently at 50,000 × g for 30 min. […] The concentrated solution was desalted twice by Sephadex G50 column size-exclusion chromatography (GE Healthcare) into 1 mL of 50 mM HEPES (pH 7.4) and quantified by the Bradford assay ([Bradford, 1976]). […]
(§4) Unless otherwise noted, DHS enzymatic activity was monitored as previously described ([Liu et al., 2008]), with several optimizations for high-throughput assays with eight-strip PCR tubes and a thermal cycler. […] The absorbance of the pink supernatant was read at 549 nm with the microplate reader (Infinite 200 PRO, TECAN, Männedorf, Switzerland) to calculate DAHP production with the molar extinction coefficient at 549 nm (ε = 549 nm) of 4.5 × 10^4/M/cm. […]

[9] = tested on: total DHS activity in Arabidopsis leaf extracts; assay: DHS activity assay of crude extracts from Arabidopsis mature leaves; assay type: biochemical, Arabidopsis thaliana; settings: 1 mM; Col-0
[10] = tested on: DHS activity from the spinach seedling extracts; assay: DHS activity assay of crude extracts from de-etiolated spinach seedlings; assay type: biochemical, Spinacia oleracea; settings: 1 mM
Method: as §3, §4

[11] = tested on: shikimate accumulation in Col-0 and dhs mutants; assay: Shikimate content with and without Tyr and/or glyphosate treatment; assay type: in vivo, Arabidopsis thaliana; settings: 250 µM glyphosate, 2 days; for increase of shikimate accumulation after treatment: plants grown with 300 µM Tyr
Method: Approximately 50–80 mg of fully expanded mature leaves were pooled from multiple plants at the same developmental stages and ground in 800 µL of extraction buffer (v/v 2:1 of methanol and chloroform with 2 µg/mL isovitexin [Millipore-Sigma], 100 µM norvaline [Thermo Fisher Scientific], and 1.25 µg/mL Tocol [Matreya LLC, State College, PA, USA] for internal standards for soluble metabolite analysis by LC–MS and GC–MS and tocopherol analysis by GC–MS, respectively), using 1600 MiniG Tissue Homogenizer (SPEX SamplePrep, Metuchen, USA) and 3-mm glass beads. After adding 600 µL of H2O and then 250 µL of chloroform, polar phase containing amino acids, and non‐polar phase containing tocopherols were separated by centrifugation, dried in new tubes. To detect Trp and AAA-derived metabolites, LC–MS analysis was carried out as previous described with some modification ([Alseekh et al., 2015]). The dried metabolites were resuspended in 70 µL of 80% LC–MS-grade methanol. Two microliters of the sample was injected onto a HSS T3 C18 reversed phase column (100 × 2.1 mm i.d., 1.8-μm particle size; Waters, Milford, CT, USA) and eluted using a 20-min gradient comprising 0.1% formic acid in LC–MS-grade water (solvent A) and 0.1% formic acid in LC–MS-grade acetonitrile (solvent B) at a flow rate of 0.4 mL/min and column temperature of 40°C. The binary linear gradient with following ratios of solvent B was used: 0–1 min, 1%; 1–13 min, 1%–35%; 13–14.5 min, 35%–70%; 14.5–15.5 min, 70%–99%, 15.5–17 min, 99%; 17–17.5 min, 99%–[…]; 17.5–20 min, 1%. The spectra were recorded using full scan mode of negative ion detection, covering a mass range from m/z 100 to 1,500. The resolution was set to 25,000 and the maximum scan time was set to 250 ms. The sheath gas was set to a value of 60, while the auxiliary gas was set to 35. The transfer capillary temperature was set to 150°C, while the heater temperature was adjusted to 300°C. The spray voltage was fixed at 3 kV, with a capillary voltage and a skimmer voltage of 25 and 15 V, respectively. Retention times, MS spectra, and associated peak intensities were extracted from the raw files using the Xcalibur software (Thermo Fisher Scientific). […] For anthocyanin quantification, the polar phase isolated for amino acid analysis was diluted 10 times with water in a new tube. […] Shikimate level was spectrometrically determined based on previous literatures ([Shaner et al., 2005]; [Sharkhuu et al., 2014]). […] After stopping the reaction by adding 100 µL of a termination solution containing 0.6 N sodium hydroxide and 0.22 M sodium sulfite, the absorption at 380 nm was immediately measured with the microplate reader. Shikimate concentration was determined by comparing with a dilution series of the shikimate standards.

T1 sequence (P29976 49-525): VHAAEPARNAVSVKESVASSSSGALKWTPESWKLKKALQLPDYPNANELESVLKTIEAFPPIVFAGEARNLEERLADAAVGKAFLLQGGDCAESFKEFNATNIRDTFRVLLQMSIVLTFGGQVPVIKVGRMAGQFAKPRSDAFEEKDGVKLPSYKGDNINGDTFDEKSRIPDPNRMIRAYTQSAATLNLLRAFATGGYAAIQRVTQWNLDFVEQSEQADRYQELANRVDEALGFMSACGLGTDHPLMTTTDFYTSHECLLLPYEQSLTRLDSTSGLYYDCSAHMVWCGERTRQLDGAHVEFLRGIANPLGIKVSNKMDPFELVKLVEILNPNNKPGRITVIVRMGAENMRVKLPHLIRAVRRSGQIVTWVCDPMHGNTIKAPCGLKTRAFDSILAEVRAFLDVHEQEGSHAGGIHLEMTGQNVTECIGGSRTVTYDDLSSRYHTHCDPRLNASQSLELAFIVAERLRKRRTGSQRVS
T2 sequence (Q00218 34-507): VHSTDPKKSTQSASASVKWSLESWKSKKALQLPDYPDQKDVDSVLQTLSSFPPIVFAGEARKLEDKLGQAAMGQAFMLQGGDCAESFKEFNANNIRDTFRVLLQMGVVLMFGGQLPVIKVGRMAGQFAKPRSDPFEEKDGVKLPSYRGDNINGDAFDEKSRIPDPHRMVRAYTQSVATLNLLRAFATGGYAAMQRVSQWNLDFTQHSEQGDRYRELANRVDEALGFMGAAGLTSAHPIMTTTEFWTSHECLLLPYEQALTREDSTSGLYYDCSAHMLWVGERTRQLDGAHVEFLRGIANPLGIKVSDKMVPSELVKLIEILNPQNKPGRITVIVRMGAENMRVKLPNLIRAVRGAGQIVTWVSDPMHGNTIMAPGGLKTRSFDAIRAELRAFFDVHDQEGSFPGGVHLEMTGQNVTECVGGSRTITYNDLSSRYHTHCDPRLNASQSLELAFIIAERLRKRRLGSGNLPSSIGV
AthDHS3, sequence (Q9SK84 entry or part of it): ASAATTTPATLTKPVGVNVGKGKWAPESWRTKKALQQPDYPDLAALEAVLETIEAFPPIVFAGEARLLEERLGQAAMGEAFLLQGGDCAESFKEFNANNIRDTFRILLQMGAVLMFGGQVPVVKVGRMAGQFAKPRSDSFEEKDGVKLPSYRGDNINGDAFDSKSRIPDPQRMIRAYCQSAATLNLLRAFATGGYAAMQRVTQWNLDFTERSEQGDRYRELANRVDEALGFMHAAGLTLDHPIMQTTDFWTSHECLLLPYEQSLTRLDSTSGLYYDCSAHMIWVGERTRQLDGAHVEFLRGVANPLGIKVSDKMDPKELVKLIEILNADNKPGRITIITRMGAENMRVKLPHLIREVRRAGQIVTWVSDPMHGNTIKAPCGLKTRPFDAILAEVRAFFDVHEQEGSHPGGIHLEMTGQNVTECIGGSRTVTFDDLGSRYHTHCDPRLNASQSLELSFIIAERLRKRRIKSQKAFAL

SMILES	effect on AthDHS1 activity (in words) [2]	effect on AthDHS2 activity (in words) [3]	effect on AthDHS3 activity (in words) [4]	observed DHS activity of the enzyme mixtures versus theoretically calculated activity [5]	IC50 [3] [µM]	IC50 [2] [µM]	effect on total DHS activity of spinach mature leaf extract [8]	effect on total DHS activity of Arabidopsis mature leaf extract [9]	effect on DHS activity of de-etiolated spinach seedling extract [10]	other results
N[C@@H](Cc1ccccc1)C(=O)O [Phe, L-phenylalanine]	did not significantly affect	did not significantly affect	did not significantly affect	matched with the theoretical plot	–	–	–	–	–	IC50 ([1]; read-out: IC50 of root growth suppression): ~550 µM; concentration that suppressed root growth ([1]; all dhs mutants, similarly to Col-0): > 300 µM; effect of the added compound on Trp-mediated root growth inhibition of dhs3 ([1]; media with 300 µM Trp, AAAs added at 300 µM, shikimate at 500 µM): not recovered; effect of the added compound on Tyr-mediated root growth inhibition of dhs1 ([1]; media with 300 µM Tyr, AAAs added at 300 µM, shikimate at 500 µM): not sufficient; concentration beyond which AthDHS2 activity is slightly activated ([3]; 1 µM to at least 5 mM tested): > 5 mM
N[C@@H](Cc1c[nH]c2ccccc12)C(=O)O [Trp, L-tryptophan]	significantly activated	–	activated	significantly higher than theoretically calculated activities	225	–	–	–	–	IC50 ([1]; read-out: IC50 of root growth impairment): 140 µM; IC50 ([1]; read-out: concentration giving 50% growth inhibition): > 300 µM; concentration that specifically impaired root growth ([1]; dhs3 mutant): ≥ 100 µM; inhibition of DHS activity [6]: 50%; effect on DHS activity [7]: activation
O=C(O)/C=C/c1ccc(O)c(O)c1 [caffeate]	completely inhibited	–	completely inhibited	–	–	49.7	more than half	more than half	significantly reduced	IC50 [4]: 53.4 µM
C=C(O[C@@H]1C=C(C(=O)O)C=C[C@H]1O)C(=O)O [chorismate]	completely inhibited	completely inhibited	completely inhibited	–	52.5	97.3	more than half	more than half	significantly reduced	IC50 ([4]; varied effector concentrations, read-out: IC50 of AthDHS3 inhibition): 83 µM
O=C(O)CNCP(=O)(O)O [glyphosate]	–	–	–	–	–	–	–	–	–	increase of shikimate accumulation after treatment ([11]; dhs2): five-fold; increase of shikimate accumulation after treatment ([11]; other genotypes): two–three-fold; effect on shikimate levels ([11]; without Tyr, similar between genotypes): increased shikimate levels
